Data taken from patent publication US20140024653A1, “COMPOSITIONS AND METHODS FOR TREATING CANCER USING PI3K INHIBITOR AND MEK INHIBITOR” (priority 2011, published 2014).

What was measured:
[1] = test system: SKMEL5; test: SRB cell growth assay, 72 h; assay type: cell-based; conditions: Homo sapiens, SK-MEL-5, most sensitive cell lines
Method: (§1) Cell growth and treatment were performed in 96-well microtitre plates CELLSTAR® (Greiner Bio-One, Germany). Cells harvested from exponential phase cultures by trypsinization were plated in 150 μl of media at optimal seeding densities. The optimal seeding densities for each cell line were determined to ensure exponential growth for the duration of the experiment. All cells growing without anticancer agents were sub-confluent by the end of the treatment as determined by visual inspection.
(§2) 150 μl of cells, after a 24-hour pre-growth period, were treated by mixing with 50 μl of the compound containing media (resulting in a final DMSO concentration of 0.1%). The cells were allowed to grow at 37° C. for 72 hours. In addition, all experiments contained a few plates with cells that were processed for measurement immediately after the 24 hours recovery period. These plates contained information about the cell number that existed before treatment, at time zero, and served to calculate the cytotoxicity.
(§3) After treatment, cells were precipitated by addition of 10% TCA. Prior to fixation, the media was aspirated as described. After an hour of incubation at 4° C., the plates were washed two times with 400 μl of deionized water. Cells were then stained with 100 μl of a 0.08% wt/v SRB. The plates were allowed to sit for at least 30 min. and washed six times with 1% acetic acid to remove unbound stain. The plates were left to dry at room temperature and bound SRB was solubilized with 100 μl of 10 mM Tris base. Measurement of optical density was performed at 560 nm on a Victor 2 plate reader (Perkin Elmer, Germany). The SRB values for A375 and H460 cell lines were near to saturation (2.5 OD units) due to the high protein content of these cells, but not cell confluence. The measurements for these cells were performed at 520 nm instead of 560 nm.
(§4) Using these measurements, cellular responses can be calculated for incomplete inhibition of cell growth (GI), complete inhibition of cell growth (T GI) and net loss of cells (LC) due to compound activity. […] This is the drug concentration causing a 50% reduction compared to the net protein increase in control cells during the drug incubation period. In other words, GI50 is IC50 corrected for time zero. Similar to IC90, calculated GI90 values are also reported for all compounds tested. TGI was calculated from Ti=Tz. […] It was calculated as 100×[(Ti−Tz)/Tz]=−50. However, due to 72 hours treatment, low cell seeding density was required and LC50 could rarely be achieved.

[2] = test system: NCIH292; test: SRB cell growth assay, 72 h; assay type: cell-based; conditions: Homo sapiens, NCI-H292, most sensitive cell lines
Method: as §1, §2, §3, §4

[3] = test system: COLO205; test: SRB cell growth assay, 72 h; assay type: cell-based; conditions: Homo sapiens, COLO 205, most sensitive cell lines
Method: as §1, §2, §3, §4

[4] = test system: SKOV3; test: SRB cell growth assay, 72 h; assay type: cell-based; conditions: Homo sapiens, SK-OV-3, highest tested concentration 50 μM, read-out: activity (estimated)
Method: as §1, §2, §3, §4

[5] = test system: SF295; test: SRB cell growth assay, 72 h; assay type: cell-based; conditions: Homo sapiens, SF-295, highest tested concentration 50 μM, read-out: activity (estimated)
Method: as §1, §2, §3, §4

[6] = test system: A375; test: SRB cell growth assay, 72 h; assay type: cell-based; conditions: Homo sapiens, A-375, most sensitive cell lines
Method: as §1, §2, §3, §4

[7] = test system: SKNAS; test: SRB cell growth assay, 72 h; assay type: cell-based; conditions: Homo sapiens, SK-N-AS, most sensitive cell lines
Method: as §1, §2, §3, §4

[8] = test system: TE671; test: SRB cell growth assay, 72 h; assay type: cell-based; conditions: Homo sapiens, TE-671, most sensitive cell lines
Method: as §1, §2, §3, §4

[9] = test system: HT29; test: SRB cell growth assay, 72 h; assay type: cell-based; conditions: Homo sapiens, HT-29, most sensitive cell lines
Method: as §1, §2, §3, §4

[10] = test system: EFO21; test: SRB cell growth assay, 72 h; assay type: cell-based; conditions: Homo sapiens, EFO-21, highest tested concentration 50 μM, read-out: activity (estimated)
Method: as §1, §2, §3, §4

[11] = test system: PC3; test: SRB cell growth assay, 72 h; assay type: cell-based; conditions: Homo sapiens, PC-3, highest tested concentration 50 μM, read-out: activity (estimated)
Method: as §1, §2, §3, §4

[12] = test system: JAR; test: SRB cell growth assay, 72 h; assay type: cell-based, human; conditions: single agent, up to 50 μM
Method: as §1, §2, §3, §4

[13] = test system: JEG3; test: SRB cell growth assay, 72 h; assay type: cell-based, human; conditions: single agent, up to 50 μM
Method: as §1, §2, §3, §4

[14] = test system: HEK293; test: SRB cell growth assay, 72 h; assay type: cell-based, human; conditions: single agent, up to 50 μM
Method: as §1, §2, §3, §4

[15] = test system: HT1080; test: SRB cell growth assay, 72 h; assay type: cell-based, human
Method: as §1, §2, §3, §4

[16] = test system: NCIH82; test: SRB cell growth assay, 72 h; assay type: cell-based, human; conditions: single agent, up to 50 μM
Method: as §1, §2, §3, §4

[17] = test system: MDAMB436; test: SRB cell growth assay, 72 h; assay type: cell-based, human; conditions: single agent, up to 50 μM
Method: as §1, §2, §3, §4

[18] = test system: J82; test: SRB cell growth assay, 72 h; assay type: cell-based, human; conditions: single agent, up to 50 μM
Method: as §1, §2, §3, §4

[19] = test system: PLCPRF5; test: SRB cell growth assay, 72 h; assay type: cell-based, human; conditions: single agent, up to 50 μM
Method: as §1, §2, §3, §4

[20] = test system: MHHES1; test: SRB cell growth assay, 72 h; assay type: cell-based, human; conditions: single agent, up to 50 μM
Method: as §1, §2, §3, §4

[21] = test system: SF268; test: SRB cell growth assay, 72 h; assay type: cell-based, human; conditions: single agent, up to 50 μM
Method: as §1, §2, §3, §4

[22] = test system: PC-3, U87-MG, A2058, WM-266-4 and MCF7 xenografts; conditions: oral administration alone; PTEN-deficient PC-3, U87-MG, A2058, WM-266-4 or PIK3CA mutated MCF7 xenografts; cited from earlier work
[23] = test system: IGROV1; test: SRB cell growth assay, 72 h; assay type: cell-based; conditions: Homo sapiens, IGROV-1, most sensitive, z-score <−1.5
Method: as §1, §2, §3, §4

[24] = test system: A204; test: SRB cell growth assay, 72 h; assay type: cell-based; conditions: Homo sapiens, most sensitive, z-score <−1.5
Method: as §1, §2, §3, §4

[25] = test system: SW620; test: SRB cell growth assay, 72 h; assay type: cell-based; conditions: Homo sapiens, SW-620, non-sensitive, z score >1.5
Method: as §1, §2, §3, §4

[26] = test system: IMR90; test: SRB cell growth assay, 72 h; assay type: cell-based; conditions: Homo sapiens, IMR-90, most sensitive, z-score <−1.5
Method: as §1, §2, §3, §4

[27] = test system: CAKI1; test: SRB cell growth assay, 72 h; assay type: cell-based; conditions: Homo sapiens, CAKI-1, most sensitive, z-score <−1.5
Method: as §1, §2, §3, §4

O=C(NC[C@H](O)CO)c1ccncc1Nc1ccc(I)cc1F [Compound (1), N—((S)-2,3-dihydroxypropyl)-3-(2-fluoro-4-iodo-phenylamino)isonicotinamide]
very sensitive: sensitivity [15]
> 50000 nM: IC50 [4] | IC50 [5] | IC50 [10] | IC50 [11]
4.8 to 8 nM: IC50 [1] | IC50 [2] | IC50 [3] | IC50 [6] | IC50 [7] | IC50 [8] | IC50 [9]
minimal activity: activity (cell growth inhibition) [12] | activity (cell growth inhibition) [13] | activity (cell growth inhibition) [14] | activity (cell growth inhibition) [16] | activity (cell growth inhibition) [17] | activity (cell growth inhibition) [18] | activity (cell growth inhibition) [19] | activity (cell growth inhibition) [20] | activity (cell growth inhibition) [21]

CCn1c(=O)c(-c2ccn[nH]2)cc2c(C)nc(N)nc21 [Compound (2b), 2-amino-8-ethyl-4-methyl-6-(1H-pyrazol-5-yl)pyrido[2,3-d]pyrimidin-7(8H)-one]
> 4000 nM: GI50 [25]
inhibits tumor growth: tumor growth [22]
< 500 nM: GI50 [23] | GI50 [24] | GI50 [26] | GI50 [27]
